Data: the supplement of paper PMC10307832

What was measured:
Assay in all cases: relative viability (nuclei count vs DMSO), 5 days (fraction); higher = more cells survive
[1] = compound: COc1cc2c(Oc3ccc4[nH]c(C)cc4c3F)ncnc2cc1OCCCN1CCCC1 [Cediranib] + Cc1cc(Nc2cc(N3CCN(C)CC3)nc(Sc3ccc(NC(=O)C4CC4)cc3)n2)n[nH]1 [Tozasertib] (partner 0.1 µM)
How it was run: (§1)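 Lung cancer cell lines in 1536-well plates got either a single drug or a fixed anchor-drug dose together with five library-drug doses (not always all listed) in √10 steps, by pin tool, on the day after seeding. Nuclei were counted after 5 days, and relative viability is the treated-to-vehicle ratio of nuclei counts. Values are medians of duplicate plates.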

[2] = compound: COc1cc2c(Oc3ccc4[nH]c(C)cc4c3F)ncnc2cc1OCCCN1CCCC1 [Cediranib] + CC1(C)CCC(c2ccc(Cl)cc2)=C(CN2CCN(c3ccc(C(=O)NS(=O)(=O)c4ccc(N[C@H](CCN5CCOCC5)CSc5ccccc5)c(S(=O)(=O)C(F)(F)F)c4)cc3)CC2)C1 [Navitoclax] (partner 0.5 µM)
How it was run: as §1

[3] = compound: Nc1ncn([C@H]2C[C@H](O)[C@@H](CO)O2)c(=O)n1 [Decitabine] + O=C(CCCCCCC(=O)Nc1ccccc1)NO [Vorinostat] (partner 1 µM)
How it was run: as §1

[4] = compound: O=C(C[C@H]1NCCC[C@@H]1O)Cn1cnc2cc(Br)c(Cl)cc2c1=O (racemic) [Halofuginone] + CS(=O)(=O)N1CCN(Cc2cc3nc(-c4cccc5[nH]ncc45)nc(N4CCOCC4)c3s2)CC1 [Pictilisib] (partner 1 µM)
How it was run: as §1

Row | Cell Line | relative viability ([1]; first compound 0.04 µM) | relative viability ([1]; first compound 0.1265 µM) | relative viability ([1]; first compound 0.4 µM) | relative viability ([1]; first compound 1.265 µM) | relative viability ([1]; first compound 4 µM) | relative viability ([2]; first compound 0.04 µM) | relative viability ([2]; first compound 0.1265 µM) | relative viability ([2]; first compound 0.4 µM) | relative viability ([2]; first compound 1.265 µM) | relative viability ([2]; first compound 4 µM) | relative viability ([3]; first compound 0.04 µM) | relative viability ([3]; first compound 0.1265 µM) | relative viability ([3]; first compound 0.4 µM) | relative viability ([3]; first compound 1.265 µM) | relative viability ([3]; first compound 4 µM) | relative viability ([4]; first compound 0.001 µM) | relative viability ([4]; first compound 0.003162 µM) | relative viability ([4]; first compound 0.01 µM) | relative viability ([4]; first compound 0.03162 µM) | relative viability ([4]; first compound 0.1 µM)
1 | LC-2-ad | 0.496 | 0.373 | 0.456 | 0.507 | 0.371 | 0.504 | 0.502 | 0.469 | 0.419 | 0.513 | 0.642 | 0.635 | 0.608 | 0.365 | 0.406 | 0.66 | 0.551 | 0.492 | 0.455 | 0.269
2 | LCLC-97TM1 | 0.217 | 0.224 | 0.191 | 0.227 | 0.229 | 0.316 | – | 0.448 | 0.544 | 0.527 | 0.273 | 0.159 | 0.107 | 0.0989 | 0.0784 | 0.289 | 0.216 | 0.179 | 0.201 | 0.14
3 | LK-2 | 0.195 | 0.156 | 0.175 | 0.194 | 0.162 | 1 | 0.848 | 0.768 | 0.828 | 0.861 | 0.229 | 0.268 | 0.285 | 0.204 | 0.208 | 0.577 | 0.792 | 0.531 | 0.664 | 0.532
4 | LOU-NH91 | 0.473 | 0.67 | 0.646 | 0.708 | 0.658 | 0.673 | 0.635 | 0.665 | 0.706 | 0.544 | 0.768 | 0.958 | 0.848 | 0.805 | 0.849 | 0.574 | 0.51 | 0.503 | 0.52 | 0.514
5 | LU99A | 0.292 | 0.285 | 0.285 | 0.286 | 0.292 | 0.787 | – | 0.813 | 0.698 | 0.969 | 0.469 | 0.513 | 0.523 | 0.453 | 0.397 | 0.405 | 0.361 | 0.294 | 0.308 | 0.242
6 | LXF-289 | 0.231 | 0.219 | 0.212 | 0.212 | 0.2 | 0.97 | 0.878 | 0.948 | 0.926 | 0.957 | 0.462 | 0.354 | 0.293 | 0.243 | 0.266 | 0.748 | 0.859 | 0.795 | 0.813 | 0.495
7 | NCI-H23 | 0.43 | – | 0.365 | 0.399 | 0.395 | 0.974 | – | 0.615 | 0.702 | 0.794 | 0.281 | 0.301 | 0.256 | 0.176 | 0.179 | 0.507 | 0.518 | 0.47 | 0.415 | 0.296
8 | NCI-H322M | 0.484 | 0.564 | 0.473 | 0.424 | 0.486 | 1.22 | 1.21 | 1.08 | 1.21 | 1.14 | 0.715 | 0.792 | 0.816 | 0.61 | 0.664 | 0.484 | 0.514 | 0.489 | 0.486 | 0.502
